Here are results for 16 molecules from patent US7396958B2, “Sulphonamide derivatives, their preparation and their therapeutic application” (Sanofi Aventis, priority 2004, dated 2008).

The target of one data set is T1, human orexin 1 receptors (Homo sapiens, UniProt O43613).
T1 construct: expressed in transfected cells; host or cells: CHO cells (membrane preparation)
T1 sequence (O43613 1-425): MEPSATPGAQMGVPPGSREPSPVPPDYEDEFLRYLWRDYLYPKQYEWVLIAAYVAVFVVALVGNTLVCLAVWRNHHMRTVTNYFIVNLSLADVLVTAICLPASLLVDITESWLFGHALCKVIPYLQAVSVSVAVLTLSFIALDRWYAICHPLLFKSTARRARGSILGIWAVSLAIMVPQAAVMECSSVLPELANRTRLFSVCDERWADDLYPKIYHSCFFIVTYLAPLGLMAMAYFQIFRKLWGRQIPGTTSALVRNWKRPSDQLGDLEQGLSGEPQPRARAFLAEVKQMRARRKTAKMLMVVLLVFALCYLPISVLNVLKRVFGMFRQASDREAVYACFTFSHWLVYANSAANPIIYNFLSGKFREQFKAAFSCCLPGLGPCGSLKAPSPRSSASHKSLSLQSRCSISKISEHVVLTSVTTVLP
The experiment in a line: in vitro binding: displacement of radio-iodinated orexin A on CHO cell membrane preparation. As to conditions: membrane preparation of CHO cells expressing human orexin 1 receptors, read-out: IC50 OX 1. Here is the method:
(§1) They were in particular tested as regards their effects. […] This method consists in studying the displacement of radio-iodinated orexin A bound to human orexin 2 receptors expressed in CHO cells. The test is performed on membranes in a Hepes 50 mM, MgCl2 1 mM, CaCl2 25 mM, NaN3 0.025%, bovine serum albumin (BSA) 1% incubation buffer and 100 pM of ligand, for 30 minutes at 25° C. The reaction is quenched by filtration and washing on a Whatman GF/C filter. The non-specific binding is measured in the presence of 10^−6M of human orexin B. The IC50 values (concentration that inhibits 50% of the binding of the radio-iodinated orexin A to its receptors) are low, less than 300 nM, in particular less than 100 nM and more particularly less than 30 nM. The affinity of the compounds according to the invention for the orexin 1 receptors was also studied in a test of in vitro binding according to the same technique using radio-iodinated orexin A as ligand in a membrane preparation of CHO cells expressing the human orexin 1 receptors. The compounds according to the invention show little or no affinity for the orexin 1 receptors.

In data set [1] the target is T2, orexin 2 receptors (Homo sapiens, UniProt O43614).
T2 sequence (O43614 1-444): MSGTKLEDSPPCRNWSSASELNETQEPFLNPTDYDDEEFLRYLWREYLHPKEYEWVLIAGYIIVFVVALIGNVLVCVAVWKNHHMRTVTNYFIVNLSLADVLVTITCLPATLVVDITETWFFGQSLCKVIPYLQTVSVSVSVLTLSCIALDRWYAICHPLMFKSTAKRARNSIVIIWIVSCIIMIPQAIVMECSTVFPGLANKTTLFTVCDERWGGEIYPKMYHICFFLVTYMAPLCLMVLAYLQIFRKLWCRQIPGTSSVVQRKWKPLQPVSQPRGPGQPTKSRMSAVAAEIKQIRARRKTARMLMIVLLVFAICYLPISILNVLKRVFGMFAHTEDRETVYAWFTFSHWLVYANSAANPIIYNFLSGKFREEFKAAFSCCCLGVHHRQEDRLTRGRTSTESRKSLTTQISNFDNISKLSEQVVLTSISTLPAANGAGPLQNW
Nature of the data set: measurement of intracellular calcium (FLIPR), antagonist test against orexin B. It counts as cell-based. As to conditions: 30 minutes preincubation before addition of 0.25 nM orexin B, Fluo-4 AM, read-out: Measurement of [Ca^2+]i IC50 OX 2 - FLIPR. Here is the method:
The agonist or antagonist nature of the compounds is determined in vitro in a test of measurement of intracellular calcium (FLIPR) on a cell preparation expressing the orexin 2 receptors, according to the general technique described in Sullivan et al., Methods Mol. Biol., 1999, vol. 114, 125-133, using 1 μM of Fluo-4 AM as fluorescent calcium indicator.

Data set [2] has as its target T2, orexin 2 receptors. Nature of the data set: in vitro binding: displacement of radio-iodinated orexin A on CHO cell membranes. More on the design: expressed in transfected cells; host or cells: CHO cells (membranes). Particulars: human orexin 2 receptors in CHO cell membranes, 100 pM ligand, 30 minutes at 25° C., read-out: IC50 OX 2. Here is the method:
as §1, with “nM.” for “nM. The affinity of the compounds according to the invention for the orexin 1 receptors was also studied in a test of in vitro binding according to the same technique using radio-iodinated orexin A as ligand in a membrane preparation of CHO cells expressing the human orexin 1 receptors. The compounds according to the invention show little or no affinity for the orexin 1 receptors.”

Each structure is given as a SMILES string. Like-named read-outs stand apart in the source and are kept apart here.

`COc1ccc(S(=O)(=O)N(CC(N)=O)c2cc(Cl)ccc2Cc2ccccc2Cl)cc1OC` [Compound 179, N^2-[5-Chloro-2-(2-chlorobenzyl)phenyl]-N^2-[(3,4-dimethoxyphenyl)sulfonyl]glycinamide]: the melting point (as a rule, the temperature of the solid-liquid transition) stood at 86.4 °C.

The molecule `COc1ccc(S(=O)(=O)N(Cc2nnn(C)n2)c2ccc(Cl)cc2C(O)c2ccccc2Cl)cc1OC` (centres unmarked) [Compound 14, N-{4-chloro-2-[(2-chlorophenyl)(hydroxy)methyl]phenyl}-3,4-dimethoxy-N-[(2-methyl-2H-tetrazol-5-yl)methyl]benzenesulfonamide] displayed a melting point of 94.8 °C.

Regarding `Cc1ccc(S(=O)(=O)N(CC(N)=O)c2ccc(Cl)cc2C(O)c2ccccc2Cl)cc1C` (centres unmarked) [Compound 28, N^2-{4-chloro-2-[(2-chlorophenyl)(hydroxy)methyl]phenyl}-N^2-[(3,4-dimethylphenyl)sulfonyl]glycinamide], the IC50 (as a rule, the point on the concentration scale where inhibition reaches its midpoint) was found to be 1.5 µM on human orexin 1 receptors, 19 nM at orexin 2 receptors [1] and 62 nM on orexin 2 receptors [2].

Consider `CNC(=O)CN(c1ccc(Cl)cc1N(C)c1ccccc1)S(=O)(=O)c1ccc(OC)c(OC)c1` [Compound 124, N^2-{4-chloro-2-[methyl(phenyl)amino]phenyl}-N^2-[(3,4-dimethoxyphenyl)sulfonyl]-N^1-methylglycinamide], for which the half-inhibitory concentration (IC50) is over 10 µM at human orexin 1 receptors (unit μM), 65 nM on orexin 2 receptors [1] and 50 nM at orexin 2 receptors [2].

Molecule `COC(=O)CN(c1ccc(Cl)cc1C(O)c1ccccc1Cl)S(=O)(=O)c1ccc(OC)c(OC)c1` (centres unmarked) [Compound 21, Methyl N-{4-chloro-2-[(2-chlorophenyl)(hydroxy)methyl]phenyl}-N-[(3,4-dimethoxyphenyl)sulfonyl]glycinate] came in with a melting point of 158.5 °C.

Regarding `COc1ccc(S(=O)(=O)N(CC(N)=O)c2c(OC)cccc2-c2ccccc2)cc1OC` [Compound 312, N˜2˜-[(3,4-dimethoxyphenyl)sulfonyl]-N˜2˜-(3-methoxybiphenyl-2-yl)glycinamide], the melting point turned out to be 86.8 °C.

On to `CCOC(=O)CN(c1ccc(Cl)cc1C(O)c1ccccc1Cl)S(=O)(=O)c1ccc(OC)c(OC)c1` (centres unmarked) [Compound 1, Ethyl N-{4-chloro-2-[(2-chlorophenyl)(hydroxy)methyl]phenyl}-N-[(3,4-dimethoxyphenyl)sulfonyl]glycinate], for which the concentration for half-maximal inhibition (IC50) at human orexin 1 receptors is 0.446 µM; at orexin 2 receptors [1] it was 5 nM; at orexin 2 receptors [2], 13 nM.

Take `COc1cccc(S(=O)(=O)N(CC(N)=O)c2ccc(Cl)cc2C(O)c2ccccc2Cl)c1` (centres unmarked) [Compound 30]: the figures for the concentration for half-maximal inhibition (IC50) on human orexin 1 receptors, at orexin 2 receptors [1] and on orexin 2 receptors [2] were 0.966 µM, 26 nM and 82 nM, respectively.

Consider `CNC(=O)CN(c1ccc(Cl)cc1C(O)c1ccccc1)S(=O)(=O)c1ccc(OC)c(OC)c1` (centres unmarked) [Compound 137, N^2-{4-chloro-2-[hydroxy(phenyl)methyl]phenyl}-N^2-[(3,4-dimethoxyphenyl)sulfonyl]-N^1-methylglycinamide], for which the half-maximal inhibitory concentration (IC50) on human orexin 1 receptors (unit μM) is over 10 µM; at orexin 2 receptors [1] it was 10 nM; at orexin 2 receptors [2], 19 nM.

Regarding `COc1ccc(S(=O)(=O)N(CC(N)=O)c2cc(N(C)C)ccc2Cc2c(F)cccc2F)cc1OC` [Compound 202, N^2-[2-(2,6-difluorobenzyl)-5-(dimethylamino)phenyl]-N^2-[(3,4-dimethoxyphenyl)sulfonyl]glycinamide], the values for the IC50 at human orexin 1 receptors, at orexin 2 receptors [1] and at orexin 2 receptors [2] were 1.87 µM, 7 nM and 9 nM, respectively.

`COc1ccc(S(=O)(=O)N(Cc2nnnn2C)c2ccc(Cl)cc2Cc2c(F)cccc2F)cc1OC` [Compound 152, N-[4-chloro-2-(2,6-difluorobenzyl)phenyl]-3,4-dimethoxy-N-[(1-methyl-1H-tetrazol-5-yl)methyl]benzenesulfonamide] yielded a melting point of 180.8 °C.

Turning to `COc1ccc(S(=O)(=O)N(CC(N)=O)c2ccc(Cl)cc2C(O)c2cccc(Cl)c2)cc1OC` (centres unmarked) [Compound 44, N^2-{4-chloro-2-[(3-chlorophenyl)(hydroxy)methyl]phenyl}-N^2-[(3,4-dimethoxyphenyl)sulfonyl]glycinamide], the IC50 is over 10 µM on human orexin 1 receptors (unit μM), 54 nM at orexin 2 receptors [1] and 85 nM on orexin 2 receptors [2].

As for `COc1ccc(S(=O)(=O)N(Cc2nccn2C)c2ccc(Cl)cc2Cc2ccccc2Cl)cc1OC` [Compound 107, N-[4-chloro-2-(2-chlorobenzyl)phenyl]-3,4-dimethoxy-N-[(1-methyl-1H-imidazol-2-yl)methyl]benzenesulfonamide], the IC50 on human orexin 1 receptors was found to be 0.899 µM; on orexin 2 receptors [1], 11 nM; at orexin 2 receptors [2], 20 nM.

Molecule `COc1ccc(N(CC(N)=O)S(=O)(=O)c2ccc(OC)c(OC)c2)c(Cc2ccccc2Cl)c1` [Compound 138, N^2-[2-(2-Chlorobenzyl)-4-methoxyphenyl]-N^2-[(3,4-dimethoxyphenyl)sulfonyl]glycinamide] registered a melting point of 184.6 °C. For the same molecule, the IC50 at human orexin 1 receptors was 4.76 µM. In addition, at orexin 2 receptors [1], the half-maximal inhibitory concentration (IC50) amounted to 11 nM. Besides, the IC50 on orexin 2 receptors [2] is 8 nM.

On to `COc1ccc(S(=O)(=O)N(CC(N)=O)c2ccc(Cl)cc2N(C)c2ccccc2)cc1OC` [Compound 92, N^2-{4-chloro-2-[methyl(phenyl)amino]phenyl}-N^2-[(3,4-dimethoxyphenyl)sulfonyl]glycinamide], for which the melting point stood at 192.5 °C.

Turning to `CNC(=O)CN(c1ccc(Cl)cc1C(C)c1ccccc1Cl)S(=O)(=O)c1ccc(OC)c(OC)c1` (centres unmarked) [Compound 187, N^2-{4-chloro-2-[1-(2-chlorophenyl)ethyl]phenyl}-N^2-[(3,4-dimethoxyphenyl)sulfonyl]-N^1-methylglycinamide], the melting point stood at 151 °C.
